Results as given in patent US7511074B2, “Tetrafluorobenzyl derivatives and pharmaceutical composition for preventing and treating acute and chronic neurodegenerative diseases in central nervous system containing the same” (AmKor Pharma, Inc., priority 2002, dated 2009).

Columns and labels:
[1] = test system: Mouse cortical cell cultures; assay: SNP (sodium nitroprusside) cytotoxicity in mixed cortical cell cultures (LDH assay); type: cell-based; conditions: continuous 5 μM SNP; LDH 24 hr later
Procedure: Mouse cortical cell cultures (DIV 12-14) were exposed to continuously 5 μM sodium nitroprusside (SNP), alone (●) or with inclusion of 0.1-10 mM aspirin (◯), 1-100 μM trolox (▾), or 0.1-10 μM 2-Hydroxy-TTBA (∇). Neuronal death was analyzed 24 hr later by measuring levels of LDH released into the bathing medium, mean ±SEM (n=9-12 culture wells per condition), scaled to mean LDH efflux value 24 hr after sham wash (=0) and continuous exposure to 500 μM NMDA (=100). *, Significant difference from the vehicle control, p<0.05 using ANOVA and Student-Neuman-Keuls' test.
For mixed neuron-glia culture, mouse cerebral cortices were removed from brains of the 14-16 day-old-fetal mice (E14-16), gently triturated and plated on 24 well plates (2×10^5 cells/plate) precoated with 100 μg/ml poly-D-lysine and 4 μg/ml laminine. Cultures were maintained at 37° C. in a humidified 5% CO2 atmosphere. Plating media consist of Eagles minimal essential media (MEM, Earles salts, supplied glutamine-free) supplemented with 5% horse serum, 5% fetal bovine serum, 26.5 mM bicarbonate, 2 mM glutamine, and 21 mM glucose.
After 7-8 days in vitro (DIV 7-8), 10 μM cytosine arabinofuranoside (Ara-C) was included to halt overgrowth of glia. The drug treatment was carried on DIV 12-15 cortical cell culture. Overall neuronal cell injury was assessed by measuring amount of lactate dehydrogenase (LDH) released into the bathing medium 24 hr after neurotoxic insults as previously described [Koh and Choi, J Neurosci Methods 20:83-90, 1987].
Mixed cortical cell cultures were continuously exposed to 5 μM SNP, a nitric oxide (NO) donor, alone or with inclusion of 0.1-10 μM 2-Hydroxy-TTBA, 1-10 μM trolox or 100-10,000 μM aspirin. Neuronal cell death was analyzed 24 hr later by LDH assay. *, Significant difference from the vehicle control (SNP), p<0.05 using ANOVA and Student-Neuman-Keuls' test.

[2] = DPPH free radical scavenging assay; type: biochemical; conditions: 100 μM DPPH in ethanol; absorption at 517 nm; 1-100 μM
Procedure: 2-Hydroxy-TTBA (●) or trolox (◯) was reacted with 100 uM 1,1-diphenyl-2-picrylhydrazil (DPPH, a stable free radical) dissolved in ethanol for […]. The radical scavenging activity was determined by measuring the decrease in DPPH levels at 517 nm. *, Significant difference from the vehicle control, p<0.05 using ANOVA and Student-Neuman-Keuls' test.
2-Hydroxy-TTS (●), 2-Hydroxy-TTA (◯), 2-Chloro-TTP (▾) or control (∇) was reacted with 100 uM DPPH dissolved in ethanol. The radical scavenging activity was determined by measuring the decrease in DPPH levels at 517 nm. *, Significant difference from the vehicle control, p<0.05 using ANOVA and Student-Neuman-Keuls' test.
To examine the free radical scavenging effects, 1-100 μM 2-Hydroxy-TTBA, 2-Hydroxy-TTA, 2-Hydroxy-TTS, 2-Chloro-TTP or trolox was reacted with 100 μM DPPH (2,2-diphenyl-1-picryl-hydrazyl radical), a stable free radical, dissolved in ethanol. After incubation for 30 min, relative decrease in DPPH absorption at 517 nm was measured by a spectrophotometer, mean ±SEM (n=3 test tubes per condition). *, Significant difference from the vehicle control (DPPH alone), p<0.05 using ANOVA and Student-Neuman-Keuls' test.

C57/BL6 mice, MPTP = assay: Dopaminergic neuronal death in substantia nigra after MPTP injection; type: in vivo, mouse; conditions: 25 or 50 mg/kg ip every 12 hr, MPTP 40 mg/kg s.c.
Procedure: (§1) Bright field photomicrographs showing dopaminergic neurons in the substantia nigra immunostained with anti-tyrosine hydroxylase (TH) antibody 3 d following sham control (A) or the single daily injection of 1-methyl-4-phenyl-1,2,3,6-tetrahydropyridine (MPTP, 40 mg/kg, SC) in C57/BL6 mice, alone (B) or with intraperitoneal injections (2 times per day) of 2-Hydroxy-TTBA (C, 25 mg/kg; D, 50 mg/kg) prior to MPTP administration.
Quantification of TH-positive dopaminergic neurons in the substantia nigral sections 3 d following the single daily injection of (MPTP, 40 mg/kg, SC), alone or with pretreatment with 2-Hydroxy-TTBA as described above. *, Significant difference from the control, p<0.05 using ANOVA and Student-Neuman-Keuls' test.
as §1, with “antibody […]” for “antibody 3”
C57/BL6 mice (male, 8 weeks) received the injections of 40 mg/kg MPTP (s.c.), alone or with 25 or 50 mg/kg 2-Hydroxy-TTBA (ip) every 12 hr per day beginning 30 min before MPTP injection. […]

For `O=C(O)c1cc(NCc2c(F)c(F)c(C(F)(F)F)c(F)c2F)ccc1O` [2-Hydroxy-TTBA, 2-hydroxy-5-(2,3,5,6-tetrafluoro-4-trifluoromethylbenzylamino)benzoic acid], the “effect on SNP toxicity” value [1] was “completely blocked”, the “strength relative to trolox in preventing NO toxicity” value [1] was 100 fold and the “reduction of DPPH levels” value [2] was “reduced levels of DPPH at lower doses”. The “degeneration of dopaminergic neurons in substantia nigra, 3 d” value (C57/BL6 mice, MPTP; 3 d) was “significantly attenuated degeneration” and the “protective effects on dopaminergic neurons, 7 d” value (C57/BL6 mice, MPTP; 7 d) was “protective effects of 2-Hydroxy-TTBA are also observed”.
